{"source": "patent US11008291B2", "about": "“Methods of forming carbene-functionalized composite materials” (Queen's University at Kingston, priority 2015, dated 2021)", "key": {"[1]": {"assay": "Bench stability and solubility of carbene precursors", "type": "physicochemical"}, "[2]": {"assay": "Temperature programmed desorption of NHC films from Au", "type": "physicochemical", "settings": "TPD, FIG. 2", "method": "Vapor deposition experiments were conducted in three separate stainless steel UHV chambers hosting an Ar ion sputtering gun and annealing facilities for sample cleaning. TPD data were collected in a UHV chamber (base pressure P=[…]) equipped with a quadrupole mass spectrometer (SPECTRA, Microvision Plus) in direct line-of-sight with the crystal, and a LEED/Auger spectrometer (SpectaLEED, Omicron). STM images were recorded in a third chamber (base pressure=[…]) equipped with a variable temperature scanning tunneling microscope (Omicron), and LEED optics. An electrochemically etched W tip was used for STM imaging typically employing bias voltages of ±0.6 V and tunneling currents of 300 pA. Image processing and filtering have been applied to the STM data using WSxM."}, "[3]": {"assay": "Chemical stability tests of NHC films on Au(111) (XPS)", "type": "physicochemical", "settings": "pH 2, THF 68° C., water RT 1 month, water 100° C., decalin, 1% H2O2; 24 h (FIGS. 7a-7g)", "method": "All films were prepared using the hydrogen carbonate salt (carbene precursor) 3a and the solution deposition method previously described. Data for stability measurements are given in Chemical Stability Results.\nNHC films derived from iPr2bimy(H)[HCO3] (3a) were submerged in freshly prepared unbuffered solutions of varying pH (pH 2 or pH 12) in Ace Glass pressure tubes at 25° C. for 24 h. Experiments were conducted under N2 gas to minimize the possibility of pH change due to adsorption of atmospheric CO2. After this time, functionalized surfaces were rinsed in deionized water (3×2 mL) and dried in an N2 gas stream. The pH values of the solutions were adjusted using concentrated NaOH and HCl solutions in deionized water. Unbuffered solutions were employed in order to avoid potential adsorption effects of buffer ions from solution.\nNHC films derived from iPr2bimy(H)[HCO3] (3a) were placed in Ace Glass pressure tubes and 3 mL of freshly distilled tetrahydrofuran (THF) was added. The tube was purged with nitrogen gas, sealed and heated to 68° C. for 24 h. After this time, the sample was cooled to RT, rinsed in THF (2×5 mL), and dried under a nitrogen gas stream.\nNHC films derived from iPr2bimy(H)[HCO3] (3a) were placed in Ace Glass pressure tubes and 2 mL of decalin were added. The tubes were purged with nitrogen gas, sealed and heated to either 100° C. or 190° C. for 24 h. […]"}, "[4]": {"target": "bovine serum albumin (BSA) (Bos taurus, UniProt P02769)", "sequence (P02769 25-607)": "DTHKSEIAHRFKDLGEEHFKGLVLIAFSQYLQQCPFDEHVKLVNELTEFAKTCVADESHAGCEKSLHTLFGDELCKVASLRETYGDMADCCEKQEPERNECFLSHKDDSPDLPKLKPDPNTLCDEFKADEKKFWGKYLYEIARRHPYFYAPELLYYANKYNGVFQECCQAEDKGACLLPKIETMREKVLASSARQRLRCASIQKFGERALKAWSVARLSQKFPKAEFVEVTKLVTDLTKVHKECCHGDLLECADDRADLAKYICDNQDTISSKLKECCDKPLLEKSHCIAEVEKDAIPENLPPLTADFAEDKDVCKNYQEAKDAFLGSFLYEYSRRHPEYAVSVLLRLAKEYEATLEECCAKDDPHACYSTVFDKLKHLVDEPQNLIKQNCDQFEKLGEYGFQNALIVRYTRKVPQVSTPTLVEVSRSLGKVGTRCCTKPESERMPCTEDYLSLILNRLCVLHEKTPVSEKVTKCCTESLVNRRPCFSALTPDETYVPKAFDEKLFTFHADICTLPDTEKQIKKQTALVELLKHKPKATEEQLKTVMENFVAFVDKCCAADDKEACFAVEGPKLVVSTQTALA", "assay": "Ferulic acid / BSA interaction on NHC-CM5 chip (SPR)", "type": "binding", "settings": "100, 200, 400, 800 μM; FIG. 20", "method": "NHC-CM5 (500 KDa) chip was used for this study. Bovine Serum Albumin (BSA) was immobilized (covalently bound to the sensor surface) using amine-coupling chemistry. PBS (10 mM phosphate, 138 mM NaCl, 2.7 mM KCl, pH 7.4) was used as running buffer. […] Final immobilization level of BSA of this study was around 3500 RU. Unmodified dextran surface was used as a reference surface (FC1).\nFerulic acid was first serially diluted into running buffer to final concentrations of 100, 200, 400, 800 μM. To test data quality and further equilibrate the surfaces, four warm-up buffer cycles were performed at a flow rate of 30 μl/min. Then, ferulic acid was injected over the reference and BSA surfaces at a flow rate of […] cycle consisted of a 2-min waiting period for monitoring of the baseline stability. Then the ferulic acid/BSA complex was allowed to associate and dissociate for 3-min and 3-min, respectively, and 20 mM NaOH (30 s) was used as the regeneration solution. The data was processed by subtracting from reference flow cell and blank injections—double referencing method."}, "[5]": {"target": "HSA (Homo sapiens, UniProt P02768)", "sequence (P02768 25-609)": "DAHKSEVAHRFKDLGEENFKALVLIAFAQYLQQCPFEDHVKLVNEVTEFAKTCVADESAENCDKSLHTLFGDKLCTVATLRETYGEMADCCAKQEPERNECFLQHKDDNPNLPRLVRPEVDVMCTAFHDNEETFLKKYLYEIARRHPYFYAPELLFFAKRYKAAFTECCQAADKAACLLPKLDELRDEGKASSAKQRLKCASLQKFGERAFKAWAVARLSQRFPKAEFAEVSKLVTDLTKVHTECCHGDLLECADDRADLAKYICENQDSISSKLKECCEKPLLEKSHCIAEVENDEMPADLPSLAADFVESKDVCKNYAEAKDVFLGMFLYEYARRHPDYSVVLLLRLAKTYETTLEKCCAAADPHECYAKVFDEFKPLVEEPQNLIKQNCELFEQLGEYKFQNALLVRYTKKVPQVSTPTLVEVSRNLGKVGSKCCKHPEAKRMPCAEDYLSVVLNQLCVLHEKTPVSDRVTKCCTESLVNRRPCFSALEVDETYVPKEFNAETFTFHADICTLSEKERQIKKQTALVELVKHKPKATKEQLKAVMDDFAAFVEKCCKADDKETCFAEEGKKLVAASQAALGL", "assay": "Opioid/protein interactions on HSA-immobilized NHC-CM5 chip (SPR)", "type": "binding", "settings": "for Detection of opioid on HSA surface of NHC-CM5 chip: 50, 100, 200, 400 μM, FIG. 21A-D", "method": "NHC-CM5 chip was used for this study. HSA was immobilized using amine-coupling chemistry. […] Three 30s-injections of 50 mM NaOH was used to wash off non-covalently bound HSA and to further stabilize the baseline. […] Unmodified dextran surface was used as a reference surface.\nOpioids were first serially diluted into running buffer to final concentrations of 50, 100, 200, 400 μM. To test data quality and further equilibrate the surfaces, 4 warm-up buffer cycles were performed at a flow rate of 30 μl/min. Opioids samples were injected over the reference and HSA surfaces at a flow rate of 30 μl/min. Replicate injections of each drug concentration were analyzed. Each cycle consisted of a 1-min waiting period for monitoring of the baseline stability. Then the drug/HSA complex was allowed to associate and dissociate for 60 s and 30 s, respectively. […] Data obtained in the reference flow cell was subtracted from that obtained in the HSA immobilized flow cell."}}}
{"smiles": "CC(C)n1c[n+](C(C)C)c2ccccc21", "note": "[Compound 3a, 1,3-Diisopropylbenzimidazolium hydrogen carbonate]", "values": [{"measurement": "Solubility in THF and DCE", "setting": "[1]; THF, DCE", "value": "mild solubility"}, {"measurement": "Stability of the solid", "setting": "[1]; ambient, in air", "value": "bench-stable"}, {"measurement": "Solubility in ethanol and methanol", "setting": "[1]; ethanol, methanol", "value": "soluble"}, {"measurement": "Solubility in water", "setting": "[1]; water", "value": "highly soluble"}, {"measurement": "Maximum desorption temperature of NHC film from Au", "setting": "[2]", "value": 605, "unit": "K"}, {"measurement": "XPS spectra of NHC SAM on gold derived from the precursor, before vs after treatment", "setting": "[3]", "value": "remained unchanged"}]}
{"smiles": "COc1cc(C=CC(=O)O)ccc1O", "note": "[ferulic acid, 4-hydroxy-3-methoxycinnamic acid]", "values": [{"measurement": "Sensing of ferulic acid by BSA pre-immobilized NHC-CM5 surface", "setting": "[4]", "value": "can sense"}]}
{"smiles": "CC(=O)Oc1ccc2c3c1O[C@H]1[C@@H](OC(C)=O)C=C[C@H]4[C@@H](C2)N(C)CC[C@@]341", "note": "[heroin]", "values": [{"measurement": "Detection of opioid on HSA surface of NHC-CM5 chip", "setting": "[5]", "value": "successfully detected"}, {"measurement": "Detectability at the lowest concentration", "setting": "[5]; lowest of 50, 100, 200, 400 μM", "value": "not detectable"}]}
{"smiles": "CNC1(c2ccccc2Cl)CCCCC1=O", "note": "(stereo not shown) [ketamine]", "values": [{"measurement": "Detection of opioid on HSA surface of NHC-CM5 chip", "setting": "[5]", "value": "successfully detected"}]}
